Values of other authors as cited in patent publication US7390922B2, “Phenolic acid salts of gabapentin in liquid and/or semi-solid dosage forms and methods of use” (Kiel Laboratories, Inc., priority 2003, dated 2008).

Assays:
[1] = biological target: gb1a-gb^2 heterodimer and post-synaptic GABAB receptor (Homo sapiens, UniProt Q9UBS5)
[2] = in water and across a wide range of pH

gb1a-gb^2 heterodimer and post-synaptic GABAB receptor, sequence (Q9UBS5 15-961 limits assumed): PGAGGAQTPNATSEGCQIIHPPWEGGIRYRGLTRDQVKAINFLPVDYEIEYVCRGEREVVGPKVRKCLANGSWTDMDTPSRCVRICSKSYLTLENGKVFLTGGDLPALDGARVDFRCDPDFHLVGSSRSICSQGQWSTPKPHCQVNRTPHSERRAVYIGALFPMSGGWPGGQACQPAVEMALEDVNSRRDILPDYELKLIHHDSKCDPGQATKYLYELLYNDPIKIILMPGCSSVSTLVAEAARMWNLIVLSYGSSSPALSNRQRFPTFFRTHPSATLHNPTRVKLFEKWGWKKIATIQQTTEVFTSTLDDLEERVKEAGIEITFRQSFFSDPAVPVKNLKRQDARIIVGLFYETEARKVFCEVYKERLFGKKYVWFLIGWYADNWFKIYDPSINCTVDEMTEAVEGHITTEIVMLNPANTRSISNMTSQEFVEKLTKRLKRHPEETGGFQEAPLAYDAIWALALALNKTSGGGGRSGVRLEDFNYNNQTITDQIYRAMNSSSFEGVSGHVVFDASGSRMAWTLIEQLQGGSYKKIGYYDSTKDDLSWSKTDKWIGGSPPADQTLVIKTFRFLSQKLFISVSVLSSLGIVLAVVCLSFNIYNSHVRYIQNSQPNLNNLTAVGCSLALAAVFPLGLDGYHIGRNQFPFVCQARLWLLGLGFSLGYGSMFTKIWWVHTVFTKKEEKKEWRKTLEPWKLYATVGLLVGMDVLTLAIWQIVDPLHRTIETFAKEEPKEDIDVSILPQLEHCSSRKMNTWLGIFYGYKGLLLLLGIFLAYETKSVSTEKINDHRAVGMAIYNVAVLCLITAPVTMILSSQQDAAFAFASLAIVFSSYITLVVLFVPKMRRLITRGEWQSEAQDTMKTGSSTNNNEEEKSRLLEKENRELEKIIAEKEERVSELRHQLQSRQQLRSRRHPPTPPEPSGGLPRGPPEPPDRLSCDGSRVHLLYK
gb1a-gb^2 heterodimer and post-synaptic GABAB receptor, sequence (O75899 42-941 partner): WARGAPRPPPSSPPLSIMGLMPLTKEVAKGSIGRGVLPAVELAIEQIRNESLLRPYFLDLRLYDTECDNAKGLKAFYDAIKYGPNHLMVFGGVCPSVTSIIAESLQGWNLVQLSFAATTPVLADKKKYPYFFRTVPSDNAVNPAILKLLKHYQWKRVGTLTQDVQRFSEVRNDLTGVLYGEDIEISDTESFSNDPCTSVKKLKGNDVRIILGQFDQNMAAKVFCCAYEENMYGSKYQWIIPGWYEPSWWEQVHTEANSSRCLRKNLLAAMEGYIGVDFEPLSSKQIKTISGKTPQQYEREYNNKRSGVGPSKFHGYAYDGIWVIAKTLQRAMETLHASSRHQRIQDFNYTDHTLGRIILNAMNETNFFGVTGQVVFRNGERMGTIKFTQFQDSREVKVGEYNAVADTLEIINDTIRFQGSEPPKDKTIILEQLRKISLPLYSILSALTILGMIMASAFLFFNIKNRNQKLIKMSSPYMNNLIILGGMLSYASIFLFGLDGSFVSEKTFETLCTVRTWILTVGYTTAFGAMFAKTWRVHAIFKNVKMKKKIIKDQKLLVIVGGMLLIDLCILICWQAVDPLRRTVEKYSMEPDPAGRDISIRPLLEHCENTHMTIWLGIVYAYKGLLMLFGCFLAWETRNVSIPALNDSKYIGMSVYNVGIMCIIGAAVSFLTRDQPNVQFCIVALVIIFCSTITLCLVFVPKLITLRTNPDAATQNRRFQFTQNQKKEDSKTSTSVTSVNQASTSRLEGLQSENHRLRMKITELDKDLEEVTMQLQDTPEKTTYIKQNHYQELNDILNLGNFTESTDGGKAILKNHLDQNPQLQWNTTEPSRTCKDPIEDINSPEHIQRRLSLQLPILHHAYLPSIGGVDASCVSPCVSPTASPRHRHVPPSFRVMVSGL

In the case of `NCC1(CC(=O)O)CCCCC1` [gabapentin, l-(amino methyl) cyclohexaneacetic acid], the receptor activity [1] is given as “selective agonist”, the “time of peak plasma gabapentin concentrations” value (adults, post-dose) is given as 2 to 3 h and the absolute bioavailability (after administration of 300 mg, dose-dependent) is given as “approximately 60%”. The metabolism (in vivo) was “is not metabolized”, the plasma protein binding (in vivo) was “does not bind to plasma proteins” and the route of elimination (in vivo) was “eliminated via glomerular filtration”. The blood-brain barrier passage (unlike GABA) was “able to cross the blood-brain barrier” and the solubility [2] was “freely soluble in water”.
